Data from patent US20050182128A1, “Use of anethole dithiolethione in lung cancer chemoprevention” (priority 2002, published 2005).
“Also recorded” adds a separate entry of the source.

Legend:
[1] = tested on: bronchial dysplasia; assay: Phase IIb randomized placebo-controlled trial: histopathology grade of bronchial biopsies before and after six months; format: in vivo, human
Description: One hundred and one volunteer current and former smokers with ≧30 pack-years smoking history and bronchial dysplasia identified by autofluorescence bronchoscopy directed biopsies were randomly assigned to receive ADT 25 mg orally TID or placebo for six months followed by a repeat bronchoscopy and biopsy of the same sites plus any new areas suspicious of dysplasia. Changes in the histopathology grade of the biopsies were used as the primary endpoint biomarker. All P values were two-sided.
Assessment For Eligibility. Five hundred and fifty-eight current and former smokers over 40 years of age in the Greater Vancouver area with a smoking history of ≧30 pack-years were invited to take part in the study. A former smoker was defined as one who had given up smoking for a year or more. They were recruited through the community outreach network of the public relations department of the British Columbia Cancer Agency (BCCA) using television programs, radio broadcasts and local newspapers. Following an initial interview, which included a questionnaire to document the smoking history, a sputum sample was obtained by induction using simultaneous high frequency chest wall oscillation with the ABI vest (Advanced Respiratory Inc. St. Pauls, Minn.) and 3% hypertonic saline for 12 minutes. […] Of these, 262 agreed to have an autofluorescence bronchoscopy with the LIFE-Lung device (Xillix Technologies Corp., Richmond, BC, Canada) (Lam et al., 1998; Lam et al., 1999). Biopsies were taken from areas with abnormal fluorescence (Lam et al., 1998; Lam et al., 1999). In addition, at least two control biopsies were taken from an upper or lower lobe. The average number of biopsies per subject was 6.7 (range 4 to 12).
Randomization. Participants with one or more sites of bronchial dysplasia were randomly assigned to receive either Sialor® (Solvay Pharma, France) at a dose of 25 mg three times daily by mouth or its placebo for six months. The placebo tablets were identical in size, shape and color to the active drug. Randomization codes were generated by a statistician at the Population and Prevention Oncology Division of BCCA and distributed to the BCCA pharmacy. All study personnel were blinded to the study coeds. Randomization was stratified according to the smoking status (current or former smoker) and dysplasia grade (mild, moderate or severe). Once a participant met the enrollment criteria, the study nurse contacted the pharmacist who then provided the study medication according to the randomization code.
Follow Up. The participants were seen monthly for examination of drug related adverse events. Liver enzymes were measured at baseline and at months 3 and 6 for toxicity monitoring. Fluorescence bronchoscopy was repeated after 6 months of study medication. The bronchoscopist was blinded to the intervention assignment. All previously biopsied sites were identified and re-biopsied under fluorescence bronchoscopy. Biopsy was also taken from new areas with abnormal fluorescence.
The primary outcome of the study was changes in the histopathology grade of the bronchial biopsies before and after six months of intervention. The secondary endpoint was changes in the nuclear morphometry index of the bronchial biopsies.
The biopsies were fixed in buffered formalin, embedded in paraffin, sectioned and stained with hematoxylin-eosin (H&E). Two pathologists (JCL, AFG) systematically reviewed them. The pathologists were blinded to the treatment assignments. All biopsies were classified into one of seven groups. Normal: as represented by pseudostratified ciliated columnar epithelium. Basal cell hyperplasia: as represented by an increase in the number and stratification of normal-appearing basal cells still covered with normal ciliated or mucin secreting cells. Metaplasia: as represented by a stratified epithelium and cytoplasmic changes consistent with squamoid differentiation. […]

[2] = tested on: intracellular glutathione; conditions: animals pretreated with various toxins and normal animals; cited from earlier work
[3] = histopathology, lesion specific, 6 months
[4] = histopathology, person specific, of 56

## COc1ccc(-c2cc(=S)ss2)cc1 [ADT, 5-(p-methoxyphenyl)-1,2-dithiole-3-thione]
[1]; 6 months, 25 mg orally TID
  Progression of pre-existing dysplastic lesions and/or appearance of new lesions compared to placebo: significantly lower rate of progression; also recorded: statistically reduces the appearances of new dysplastic lesion or progression of pre-existing dysplastic lesions
[1]; all P-values >0.90
  CR or PD rates, full dose compared to reduced dose: no significant difference in the CR or PD rates
[1]; baseline grade 1
  Biopsies of grade 1 (normal/hyperplasia) at 6 months follow-up: 100
  Biopsies of grade 2 (metaplasia) at 6 months follow-up: 9
  Biopsies of grade 3 (mild dysplasia) at 6 months follow-up: 5
  Biopsies of grade 4 (moderate dysplasia) at 6 months follow-up: 2
  Biopsies of grade 5 (severe dysplasia) at 6 months follow-up: 0
[1]; baseline grade 2
  Biopsies of grade 1 (normal/hyperplasia) at 6 months follow-up: 22
  Biopsies of grade 2 (metaplasia) at 6 months follow-up: 2
  Biopsies of grade 3 (mild dysplasia) at 6 months follow-up: 3
  Biopsies of grade 4 (moderate dysplasia) at 6 months follow-up: 0
  Biopsies of grade 5 (severe dysplasia) at 6 months follow-up: 0
[1]; baseline grade 3
  Biopsies of grade 1 (normal/hyperplasia) at 6 months follow-up: 53
  Biopsies of grade 2 (metaplasia) at 6 months follow-up: 14
  Biopsies of grade 3 (mild dysplasia) at 6 months follow-up: 27
  Biopsies of grade 4 (moderate dysplasia) at 6 months follow-up: 6
  Biopsies of grade 5 (severe dysplasia) at 6 months follow-up: 0
[1]; baseline grade 4
  Biopsies of grade 1 (normal/hyperplasia) at 6 months follow-up: 8
  Biopsies of grade 2 (metaplasia) at 6 months follow-up: 0
  Biopsies of grade 3 (mild dysplasia) at 6 months follow-up: 2
  Biopsies of grade 4 (moderate dysplasia) at 6 months follow-up: 3
  Biopsies of grade 5 (severe dysplasia) at 6 months follow-up: 1
[1]; baseline grade 5
  Biopsies of grade 1 (normal/hyperplasia) at 6 months follow-up: 0
  Biopsies of grade 2 (metaplasia) at 6 months follow-up: 0
  Biopsies of grade 3 (mild dysplasia) at 6 months follow-up: 2
  Biopsies of grade 4 (moderate dysplasia) at 6 months follow-up: 0
  Biopsies of grade 5 (severe dysplasia) at 6 months follow-up: 0
[1]; baseline: not sampled
  Biopsies of grade 1 (normal/hyperplasia) at 6 months follow-up: 34
  Biopsies of grade 2 (metaplasia) at 6 months follow-up: 8
  Biopsies of grade 3 (mild dysplasia) at 6 months follow-up: 13
  Biopsies of grade 4 (moderate dysplasia) at 6 months follow-up: 0
  Biopsies of grade 5 (severe dysplasia) at 6 months follow-up: 1
[1]; dose reduction yes
  CR rate: 24%
  PD rate: 32%
  PR rate: 32%
[1]; dose reduction yes, of 25
  CR, number of participants: 6
  PD, number of participants: 8
  PR, number of participants: 8
[1]; histopathology, 6 months
  PD rate lower than placebo, person specific analysis: 22%
  Partial response (PR) rate, person specific analysis: (23%)
  Stable disease (SD) rate, person specific analysis: (18%)
[1]; histopathology, 6 months ADT 25 mg orally TID, placebo 17%, P<0.001
  Progressive disease (PD) rate, lesion specific analysis: 8%
[1]; histopathology, 6 months, placebo 41%, P=0.14
  Complete response (CR) rate, lesion specific analysis: 53%
[1]; histopathology, 8% ADT versus 17% placebo
  PD rate lower than placebo, lesion specific analysis: 9%
[1]; histopathology, 27% versus 16%
  CR rate higher than placebo, person specific analysis: 11%
[1]; histopathology, 53% versus 41%, not significant
  CR rate higher than placebo, lesion specific analysis: 12%
[1]; [3]
  CR lesions / dysplastic lesions at baseline: 61/116
  PD lesions / all biopsies: 24/315
[1]; [4]
  CR, number of participants: 15
  PD, number of participants: 18
  PR, number of participants: 13
[1]; multiple logistic regression
  Association of treatment with odds of CR: not significantly associated with increasing odds of CR
[1]; multiple logistic regression, ADT is reference, placebo OR 3.5 (95% CI 1.3-9.3, P 0.01)
  OR, likelihood of progressive disease six months after intervention: 1
[1]; no dose reduction
  PD rate: 32%
  PR rate: 16%
[1]; no dose reduction (full 25 mg TID)
  CR rate: 29%
[1]; no dose reduction (full 25 mg TID), of 31
  CR, number of participants: 9
[1]; no dose reduction, of 31
  PD, number of participants: 10
  PR, number of participants: 5
[1]; total of all baseline grades
  Biopsies of grade 1 (normal/hyperplasia) at 6 months follow-up: 217
  Biopsies of grade 2 (metaplasia) at 6 months follow-up: 33
  Biopsies of grade 3 (mild dysplasia) at 6 months follow-up: 52
  Biopsies of grade 4 (moderate dysplasia) at 6 months follow-up: 11
  Biopsies of grade 5 (severe dysplasia) at 6 months follow-up: 2
[2]
  Intracellular glutathione: increase of intracellular glutathione
